According to patent US20070128217A1 (priority 2003, published 2007):

Assays:
[1] = test system: antibodies in sera from SARS patients (sera 1a, 1b, 2, 6, 37, 62, London, SARS-yellow, SARS-green); format: binding, human; set-up: Binding of serum 6 to linear peptides of protein X1 of SARS-CoV Urbani / Binding of serum 37 to linear peptides of protein X1 of SARS-CoV Urbani / Binding of serum 6 to looped/cyclic peptide (PEPSCAN-ELISA) / Binding of serum 37 to looped/cyclic peptide (PEPSCAN-ELISA) / Binding of serum 37 to looped/cyclic peptides of protein X1 of SARS-CoV Urbani / Binding of serum 6 to linear peptides of protein X2 / Binding of serum 37 to linear peptides of protein X2 / Binding of serum 37 to looped/cyclic peptides of protein X2 of SARS-CoV Urbani / Binding of serum 6 to linear peptides of protein M of SARS-CoV Urbani / Binding of serum 37 to linear peptides of protein M of SARS-CoV Urbani / Binding of serum 6 to looped/cyclic peptides of protein M of SARS-CoV Urbani / Binding of serum 37 to looped/cyclic peptides of protein M of SARS-CoV Urbani / Binding of serum 6 to linear peptides of protein X3 of SARS-CoV Urbani / Binding of serum 37 to linear peptides of protein X3 of SARS-CoV Urbani / Binding of serum 37 to looped/cyclic peptides of protein X3 of SARS-CoV Urbani / Binding of serum 6 to linear peptides of protein X4 of SARS-CoV Urbani / Binding of serum 37 to linear peptides of protein X4 of SARS-CoV Urbani / Binding of serum 37 to looped/cyclic peptides of protein X4 of SARS-CoV Urbani / Binding of serum 6 to linear peptides of protein X5 of SARS-CoV Urbani / Binding of serum 37 to linear peptides of protein X5 of SARS-CoV Urbani / Binding of serum 37 to looped/cyclic peptides of protein X5 of SARS-CoV Urbani / Binding of serum 6 to linear peptides of protein N of SARS-CoV Urbani / Binding of serum 37 to linear peptides of protein N of SARS-CoV Urbani / Binding of serum 6 to linear peptide (PEPSCAN-ELISA) / Binding of serum 1a to looped/cyclic peptides of protein N of SARS-CoV Urbani / Binding of serum 1b to looped/cyclic peptides of protein N of SARS-CoV Urbani / Binding of serum 2 to looped/cyclic peptides of protein N of SARS-CoV Urbani / Binding of serum 6 to looped/cyclic peptides of protein N of SARS-CoV Urbani / Binding of serum 37 to looped/cyclic peptides of protein N of SARS-CoV Urbani / Binding of serum 62 to looped/cyclic peptides of protein N of SARS-CoV Urbani / Binding of serum London to looped/cyclic peptides of protein N of SARS-CoV Urbani / Binding of serum SARS-green to looped/cyclic peptides of protein N of SARS-CoV Urbani: unit not given here
[2] = test system: rabbit serum obtained by immunizing a rabbit with the SARS-CoV strain Frankfurt 1; format: binding; set-up: Binding of a rabbit serum to linear peptides / Binding of a rabbit serum to looped peptides / Rabbit serum linear peptides / Rabbit serum looped peptides / Binding of a rabbit serum to linear peptides of protein N of SARS-CoV Urbani (Rabbit serum linear peptides) / Binding of a rabbit serum to looped/cyclic peptides of protein N of SARS-CoV Urbani (Rabbit serum looped peptides): unit not given here
[3] = test system: control sera (pooled serum of ten healthy LUMC hospital workers; commercial negative donor pooled serum from the Dutch bloodbank); format: binding, human; set-up: Binding of Control serum LUMC to linear peptides / Binding of Control serum Blood-bank to linear peptides / Binding of Control serum LUMC to looped peptides / Binding of Control Serum Blood-Bank to Looped peptides / Binding of Control serum LUMC to linear peptides of the protein M of SARS-CoV Urbani / Binding of Control serum Blood-bank to linear peptides of the protein M of SARS-CoV Urbani / Binding of Control serum LUMC to looped peptides of the protein M of SARS-CoV Urbani / Binding of Control Serum Blood-Bank to Looped peptides of the protein M of SARS-CoV Urbani: unit not given here

Sequence	Binding of Control Serum Blood-Bank to Looped peptides [3]	Binding of Control serum Blood-bank to linear peptides [3]	Binding of Control serum LUMC to linear peptides [3]	Binding of Control serum LUMC to looped peptides [3]	Binding of serum 1a to linear peptides of protein X4 of SARS-CoV Urbani [1]	Binding of serum 1a to looped/cyclic peptides of protein X4 of SARS-CoV Urbani [1]	Binding of serum 1b to linear peptides of protein X4 of SARS-CoV Urbani [1]	Binding of serum 1b to looped/cyclic peptides of protein X4 of SARS-CoV Urbani [1]	Binding of serum 2 to linear peptides of protein X4 of SARS-CoV Urbani [1]	Binding of serum 2 to looped/cyclic peptides of protein X4 of SARS-CoV Urbani [1]	Binding of serum 6 to linear peptides of protein X4 of SARS-CoV Urbani [1]	Binding of serum 6 to looped/cyclic peptides of protein X4 of SARS-CoV Urbani [1]	Binding of serum 37 to linear peptides of protein X4 of SARS-CoV Urbani [1]	Binding of serum 37 to looped/cyclic peptides of protein X4 of SARS-CoV Urbani [1]	Binding of serum 62 to linear peptides of protein X4 of SARS-CoV Urbani [1]	Binding of serum 62 to looped/cyclic peptides of protein X4 of SARS-CoV Urbani [1]	Binding of serum London to linear peptides of protein X4 of SARS-CoV Urbani [1]	Binding of serum London to looped/cyclic peptides of protein X4 of SARS-CoV Urbani [1]	Binding of serum SARS-green to linear peptides of protein X4 of SARS-CoV Urbani [1]	Binding of serum SARS-green to looped/cyclic peptides of protein X4 of SARS-CoV Urbani [1]	also measured
ESTQITTDTGIENAT	0.4	0.4	0.5	0.4																	Binding of serum 1a to linear peptides of protein X1 of SARS-CoV Urbani [1]: 0.6; Binding of serum 1a to looped/cyclic peptides of protein X1 of SARS-CoV Urbani [1]: 0.4; Binding of serum 1b to linear peptides of protein X1 of SARS-CoV Urbani [1]: 0.4; Binding of serum 1b to looped/cyclic peptides of protein X1 of SARS-CoV Urbani [1]: 0.2; Binding of serum 2 to linear peptides of protein X1 of SARS-CoV Urbani [1]: 0.3; Binding of serum 2 to looped/cyclic peptides of protein X1 of SARS-CoV Urbani [1]: 0.1; Binding of serum 6 to linear peptides of protein X1 of SARS-CoV Urbani [1]: 0.4; Binding of serum 6 to looped/cyclic peptides of protein X1 of SARS-CoV Urbani [1]: 0.2; Binding of serum 37 to linear peptides of protein X1 of SARS-CoV Urbani [1]: 0.5; Binding of serum 37 to looped/cyclic peptides of protein X1 of SARS-CoV Urbani [1]: 0.3; Binding of serum 62 to linear peptides of protein X1 of SARS-CoV Urbani [1]: 0.5; Binding of serum 62 to looped/cyclic peptides of protein X1 of SARS-CoV Urbani [1]: 0.3; Binding of serum London to linear peptides of protein X1 of SARS-CoV Urbani [1]: 0.2; Binding of serum London to looped/cyclic peptides of protein X1 of SARS-CoV Urbani [1]: 0.2; Binding of serum SARS-green to linear peptides of protein X1 of SARS-CoV Urbani [1]: 0.2; Binding of serum SARS-green to looped/cyclic peptides of protein X1 of SARS-CoV Urbani [1]: 0.1; Binding of serum SARS-yellow to linear peptides of protein X1 of SARS-CoV Urbani [1]: 0.1; Binding of serum SARS-yellow to looped/cyclic peptides of protein X1 of SARS-CoV Urbani [1]: 0.3; Binding of a rabbit serum to linear peptides [2]: 0.1; Binding of a rabbit serum to looped peptides [2]: 0.5
EVQQELYSPLFLIVA	0.7	0.5	0.5	0.8	0.7	0.7	0.6	0.6	0.4	0.6	0.9	0.5	0.8	0.7	0.7	0.6	1.0	0.3	0.8	0.3	Binding of serum SARS-yellow to linear peptides of protein X4 of SARS-CoV Urbani [1]: 0.6; Binding of serum SARS-yellow to looped/cyclic peptides of protein X4 of SARS-CoV Urbani [1]: 0.9; Recognition of the peptide by sera of SARS-CoV infected individuals, and form (linear, looped/cyclic) in which it is recognized [1]: recognized in looped/cyclic form; Rabbit serum linear peptides [2]: 0.5; Rabbit serum looped peptides [2]: 0.5
FACADGTRHTYQLRA	0.3	0.7	0.4	0.4	0.7	0.7	0.4	0.6	0.4	0.6	0.4	0.3	0.6	0.7	0.7	0.7	0.8	0.4	0.5	0.8	Binding of serum SARS-yellow to linear peptides of protein X4 of SARS-CoV Urbani [1]: 0.2; Binding of serum SARS-yellow to looped/cyclic peptides of protein X4 of SARS-CoV Urbani [1]: 0.3; Recognition of the peptide by the rabbit serum [2]: recognized
